This note sets out measurements from patent US5342942A, “Pyrazoloquinazolone derivatives as neurotrophic agents” (Warner-Lambert Company, priority 1993, dated 1994).

Where a name gives a salt, the structure may show the parent alone.

One assay has as its system NGF. Put plainly: interaction with NGF bound to a sepharose support (FIG. 6). The class given is binding.
Details: not given
From the text:
(§1) In principle, a compound may inhibit the binding of NGF to the p75 receptor by interacting with either protein. The compounds of the present invention are studied further as exemplified here with the compound of Example 3.
Take `Cn1c2ccc(NC(=O)c3ccccc3)cc2c(=O)n2nc(C(=O)O)cc12` [Example 3, 7-(Benzoylamino)-4,9-dihydro-4-methyl-9-oxopyrazolo-[5,1-b]quinazoline-2-carboxylic acid]: the “specific interaction with NGF” value was “specific interaction between Compound 3 and NGF”.

The subject of another assay is NGF receptors. Put plainly: direct binding to NGF receptors with radioiodinated derivative of Compound 3 (FIG. 5). Conditions: utilizing a radioiodinated derivative of Compound 3 (corresponding to Example 3j).
Text: as §1
On to `Cn1c2ccc(NC(=O)c3ccccc3)cc2c(=O)n2nc(C(=O)O)cc12` [Example 3, 7-(Benzoylamino)-4,9-dihydro-4-methyl-9-oxopyrazolo-[5,1-b]quinazoline-2-carboxylic acid], for which the “direct binding to NGF receptors” value is “does not bind to NGF receptors directly”.

In the next assay the target is T1, extracellular domain of the p75 receptor (Homo sapiens).
T1 construct: purchased Chiron Corporation, Emeryville, Calif; (originally); also commercially available from Austral Biologicals, Inc. (San Diego, Calif.)
T1 sequence (P01138 122-241): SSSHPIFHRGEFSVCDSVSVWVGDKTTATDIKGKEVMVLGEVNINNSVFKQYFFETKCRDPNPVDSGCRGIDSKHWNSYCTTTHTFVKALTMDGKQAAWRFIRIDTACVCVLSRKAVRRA
Put plainly: inhibition of ^125 I-NGF binding to the extracellular domain of the p75 receptor (truncated form, residues 1-222, microtiter plate). The note with it: 2 nM ^125 I-NGF, 2 hours at room temperature; read-out: Concentration (IC50, nM): inhibition of ^125 I-NGF binding to the extracellular domain of the p75 receptor. The protocol:
(§2) Assays of novel compounds are performed by measuring the compounds' ability to inhibit the binding of NGF to the NGF p75 receptor, using a truncated form (Residues 1-222, molecular weight=56 KDa) of the p75 receptor, originally obtained from Chiron Corporation, Emeryville, Calif., but also commercially available from Austral Biologicals, Inc. (San Diego, Calif.), on plastic 96-well microtiter plates (Immulon 11 Dynatech). The wells are coated with 50 μL/well of 20 μg/mL streptavidin in a […] (DPBS). The plates are then incubated at room temperature for 6 hours. The excess streptavidin is then poured out, the wells are washed with a 0.1% solution of bovine serum albumin (BSA) in DPBS. To each well is then added 50 μg/mL of a DPBS solution containing the truncated p75 receptor, which has previously been reacted with biotin by standard procedures. The plates are then incubated at room temperature for 2 hours and washed with 0.2% BSA/DPBS. To each well is added 98 μL of 2 nM ^125 I-NGF, followed by 2 μL/well of a concentration of test compound that is 50 times greater than the desired final test concentration. The plates are incubated for 2 hours at room temperature. The assay is read as the IC50, the concentration of compound that blocks 50% of the binding of ^125 I-NGF to the p75 receptor. […]
With `Cn1c2ccc(N)cc2c(=O)n2nc(C(=O)O)cc12` [Example 1, 7-Amino-4,9-dihydro-4-methyl-9-oxopyrazolo[5,1-b]-quinazoline-2-carboxylic acid], the IC50 amounted to 1900 nM. For the compound `Cn1c2ccc(NC(=O)c3ccccc3)cc2c(=O)n2nc(C(=O)O)cc12` [Example 3, 7-(Benzoylamino)-4,9-dihydro-4-methyl-9-oxopyrazolo-[5,1-b]quinazoline-2-carboxylic acid], the IC50 is 228 nM. In the case of `Cn1c2ccc(NC(=O)c3cccs3)cc2c(=O)n2nc(C(=O)O)cc12` [Example 3a, 4,9-Dihydro-4-methyl-9-oxo-7-[(2-thienylcarbonyl)amino]pyrazolo[5,1-b]quinazoline-2-carboxylic acid], the IC50 was determined as 690 nM. Same read-out and setting: in the case of `Cc1ccc(C(=O)Nc2ccc3c(c2)c(=O)n2nc(C(=O)O)cc2n3C)cc1` [Example 3b, 4,9-Dihydro-4-methyl-9-oxo-7-[(4-methylbenzoyl)amino]-pyrazolo[5,1-b]quinazoline-2-carboxylic acid] it was 180 nM; in that of `COc1ccc(C(=O)Nc2ccc3c(c2)c(=O)n2nc(C(=O)O)cc2n3C)cc1` [Example 3c, 4,9-Dihydro-4-methyl-9-oxo-7-[(4-methoxybenzoyl)amino]-pyrazolo[5,1-b]quinazoline-2-carboxylic acid], 10000 nM. Same read-out and setting: to `Cn1c2ccc(NC(=O)c3ccc(Cl)cc3)cc2c(=O)n2nc(C(=O)O)cc12` [Example 3d, 7-[(4-Chlorobenzoyl)amino]-4,9-dihydro-4-methyl-9-oxopyrazolo [5,1-b]quinazoline-2-carboxylic acid] belongs 250 nM; to `Cn1c2ccc(NC(=O)Cc3ccccc3)cc2c(=O)n2nc(C(=O)O)cc12` [Example 3e, 4,9-Dihydro-4-methyl-9-oxo-7-[(phenylacetyl)aminol]-pyrazolo[5,1-b]quinazoline-2-carboxylic acid], 568 nM. On to `Cn1c2ccc(NC(=O)c3ccc(Cl)c(Cl)c3)cc2c(=O)n2nc(C(=O)O)cc12` [Example 3f, 7-[(3,4-Dichlorobenzoyl)amino]-4,9-dihydro-4-methyl-9-oxopyrazolo[5,1-b]quinazoline-2-carboxylic acid], for which the IC50 worked out at 844 nM. Same read-out and setting: in the case of `Cn1c2ccc(NC(=O)Nc3ccccc3)cc2c(=O)n2nc(C(=O)O)cc12` [Example 3g] it was 3880 nM.

Take `Cn1c2ccc(NC(=O)CCc3ccccc3)cc2c(=O)n2nc(C(=O)O)cc12` [Example 3h, 4,9-Dihydro-4-methyl-9-oxo-7[(1-oxo-3-phenylpropyl) -amino]pyrazolo [5,1-b]quinazoline-2-carboxylic acid]: the IC50 amounted to 1710 nM. `Cn1c2ccc(NC(=O)c3ccc4ccccc4c3)cc2c(=O)n2nc(C(=O)O)cc12` [Example 3i]: the IC50 was 431 nM. Turning to `Cn1c2ccc(NC(=O)c3ccc(I)cc3)cc2c(=O)n2nc(C(=O)O)cc12` [Example 3j, 4,9-Dihydro-7-[(4-iodobenzoyl)amino]-4-methyl-9-oxopyrazolo[5,1-b]quinazoline-2-carboxylic acid], the IC50 was found to be 472 nM. On the same count and under the same terms, in the case of `Cn1c2ccc(NC(=O)c3ccc([N+](=O)[O-])cc3)cc2c(=O)n2nc(C(=O)O)cc12` [Example 3k, 4,9-Dihydro-4-methyl-7-[(4-nitrobenzoyl)amino]-9-oxopyrazolo[5,1-b]quinazoline-2-carboxylic acid] it was 229 nM; in that of `Cn1c2ccc(NC(=O)c3ccc(C(C)(C)C)cc3)cc2c(=O)n2nc(C(=O)O)cc12` [Example 3l, 7-[(4-tert-Butylbenzoyl)amino]-4,9-dihydro-4-methyl-9-oxopyrazolo[5,1-b]quinazoline-2-carboxylic acid], 862 nM. On to `Cn1c2ccc(NC(=O)C34CC5CC(CC(C5)C3)C4)cc2c(=O)n2nc(C(=O)O)cc12` [Example 3m, 4,9-Dihydro-4-methyl-9-oxo-7-[(tricyclo[3.3.1.1^3,7]-dec-1-ylcarbonyl)amino]pyrazolo[5,1-b]quinazoline-2-carboxylic acid], for which the IC50 came out at 2230 nM. Still for that read-out and setting: in the case of `Cn1c2ccc(NC(=O)c3ccc(C(F)(F)F)cc3)cc2c(=O)n2nc(C(=O)O)cc12` [Example 3n, 4,9-Dihydro-4-methyl-9-oxo-7-[[(4-trifluoromethyl)benzoyl]amino]pyrazolo [5,1-b]quinazoline-2-carboxylic acid] it was 2570 nM.

As for `Cc1cccc(C(=O)Nc2ccc3c(c2)c(=O)n2nc(C(=O)O)cc2n3C)c1` [Example 3p, 4,9-Dihydro-4-methyl-7-[(3-methylbenzoyl)amino]-9-oxopyrazolo[5,1-b]quinazoline-2-carboxylic acid], the IC50 came out at 748 nM.

Consider `Cn1c2ccc(NC(=O)c3ccc(-c4ccccc4)cc3)cc2c(=O)n2nc(C(=O)O)cc12` [Example 3q, 7-[[(1,1'-Biphenyl)-4-ylcarbonyl]amino]-4,9-dihydro-4-methyl-9-oxopyrazolo[5,1-b]quinazoline-2-carboxylic acid], for which the IC50 was determined as 222 nM. As to `Cc1ccccc1C(=O)Nc1ccc2c(c1)c(=O)n1nc(C(=O)O)cc1n2C` [Example 3r, 4,9-Dihydro-4-methyl-7-[(2-methylbenzoyl)amino]-9-oxopyrazolo[5,1-b]quinazoline-2-carboxylic acid], the IC50 is greater than 10000 nM. The same measure, in the same setting: in the case of `Cn1c2ccc(NC(=O)c3ccc(F)cc3)cc2c(=O)n2nc(C(=O)O)cc12` [Example 3s, 4,9-Dihydro-7-[(4-fluorobenzoyl)amino]-4-methyl-9-oxopyrazolo[5,1-b]quinazoline-2-carboxylic acid] it was 266 nM. Same read-out and setting: to `Cn1c2ccc(NC(=O)c3ccc(C(=O)O)cc3)cc2c(=O)n2nc(C(=O)O)cc12` [Example 3t] belongs 166 nM; to `Cc1ccc(C(=O)Nc2ccc3c(c2)c(=O)n2nc(C(=O)O)cc2n3C)cc1I` [Example 3u, 4,9-Dihydro-7-[(3-iodo-4-methylbenzoyl)amino]-4-methyl-9-oxopyrazolo[5,1-b]quinazoline-2-carboxylic acid], roughly 200 nM.

On to `Cn1c2ccc(NC(=O)CC(=O)O)cc2c(=O)n2nc(C(=O)O)cc12` [Example 3v, 7-[(Carboxyacetyl)amino]-4,9-dihydro-4-methyl-9-oxopyrazolo[5,1-b]quinazoline-2-carboxylic acid], for which the IC50 came to 1150 nM. On the same count and under the same terms, to `Cn1c2ccc(NC(=O)CCC(=O)O)cc2c(=O)n2nc(C(=O)O)cc12` [Example 3w, 7-[(3-Carboxy-1-oxopropyl)amino]-4,9-dihydro-4-methyl-9-oxopyrazolo[5,1-b]qruinazoline-2-carboxylic acid] belongs 116 nM. `Cn1c2ccc(NC(=O)CCCC(=O)O)cc2c(=O)n2nc(C(=O)O)cc12` [Example 3x, 7-[(4-Carboxy-1-oxobutyl)amino]-4,9-dihydro-4-methyl-9-oxopyrazolo[5,1-b]quinazoline-2-carboxylic acid]: the IC50 came to 36 nM. Still for that read-out and setting: to `Cc1ccc(C(=O)Nc2ccc3c(c2)c(=O)n2nc(C(=O)O)cc2n3C)cc1` [Example 7, 4,9-Dihydro-4-methyl-9-oxo-7-[(methylbenzoyl)amino]-pyrazolo[5,1-b]quinazoline-2-carboxylic acid; triethanolamine salt (1:1)] belongs 1160 nM; to `O=C(O)c1ccc2c(=O)n3nc(C(=O)O)cc3[nH]c2c1` [H H CO2 H], 1100 nM; to `Cc1ccc2[nH]c3cc(C(=O)O)nn3c(=O)c2c1` [H Me H], 12900 nM. As to `Nc1ccc2[nH]c3cc(C(=O)O)nn3c(=O)c2c1` [H NH2 H], the IC50 worked out at 338 nM. For the compound `CC(=O)Nc1ccc2c(c1)c(=O)n1nc(C(=O)O)cc1n2C` [Me CH3 CONH H], the IC50 was 1700 nM. Same read-out and setting: to `Cn1c2ccccc2c(=O)n2nc(C(=O)O)cc12` [Me H H] belongs 30800 nM. Same read-out and setting: in the case of `Cc1ccc2c(c1)c(=O)n1nc(C(=O)O)cc1n2C` [Me Me H] it was 9700 nM.

For a further assay, the target named is T2, extracellular domain of the p75 receptor (Homo sapiens, UniProt P01138).
T2 construct: purchased Chiron Corporation, Emeryville, Calif; (originally); also commercially available from Austral Biologicals, Inc. (San Diego, Calif.)
T2 sequence (P01138 122-241): as above
The assay is described as above. The note with it: FIG. 1, result in words. On the procedure: as §2
As to `Cn1c2ccc(NC(=O)c3ccccc3)cc2c(=O)n2nc(C(=O)O)cc12` [Example 3, 7-(Benzoylamino)-4,9-dihydro-4-methyl-9-oxopyrazolo-[5,1-b]quinazoline-2-carboxylic acid], the “prevention of binding of ^125 I-NGF to the extracellular domain of p75” value was “prevents the binding of ^125 I-NGF to the extracellular domain of p75”.

In a further assay the test system is p75. As to the kind of experiment: inhibition of crosslinking of ^125 I-NGF to p75 (FIG. 4). The class given is binding.
Details: not given
Text: as §1
Regarding `Cn1c2ccc(NC(=O)c3ccccc3)cc2c(=O)n2nc(C(=O)O)cc12` [Example 3, 7-(Benzoylamino)-4,9-dihydro-4-methyl-9-oxopyrazolo-[5,1-b]quinazoline-2-carboxylic acid], the “inhibition of crosslinking of ^125 I-NGF to p75” value is “can inhibit the crosslinking of ^125 I-NGF to p75”.

The subject of the next assay is PC12 cells that express both p75 and trk. Put plainly: inhibition of ^125 I-NGF binding in PC12 cells that express both p75 and trk (FIG. 3). Conditions: p75 about 80% and trk about 20% of total NGF receptors.
Text: as §1
In the case of `Cn1c2ccc(NC(=O)c3ccccc3)cc2c(=O)n2nc(C(=O)O)cc12` [Example 3, 7-(Benzoylamino)-4,9-dihydro-4-methyl-9-oxopyrazolo-[5,1-b]quinazoline-2-carboxylic acid], the “block of ^125 I-NGF binding in PC12 cells” value was “about 80%”.

The next assay has as its system full length p75 receptor. As to the kind of experiment: inhibition of ^125 I-NGF binding to full length p75 receptor expressed in CHO cells that lack trk (FIG. 2). The note with it: CHO cells that lack trk expression.
Text: as §1
As for `Cn1c2ccc(NC(=O)c3ccccc3)cc2c(=O)n2nc(C(=O)O)cc12` [Example 3, 7-(Benzoylamino)-4,9-dihydro-4-methyl-9-oxopyrazolo-[5,1-b]quinazoline-2-carboxylic acid], the “prevention of binding of ^125 I-NGF to full length p75 receptor” value is on record as “completely prevents binding of ^125 I-NGF to full length p75 receptor”.
